Experimental data as given in patent US20220220135A1 (BAR-ILAN UNIVERSITY, priority 2019, published 2022).

What was measured:
human NPP3 = molecular target: T1, human NPP3 (Homo sapiens, UniProt O14638); assay: Inhibition of human NPP3, 100 μM p-Nph-5′-TMP as substrate (Tables 5, 7); format: biochemical; settings: 10 μM; 100 μM p-Nph-5′-TMP as a substrate; inactive = no inhibition at 10 μM
T1 sequence (O14638 1-875): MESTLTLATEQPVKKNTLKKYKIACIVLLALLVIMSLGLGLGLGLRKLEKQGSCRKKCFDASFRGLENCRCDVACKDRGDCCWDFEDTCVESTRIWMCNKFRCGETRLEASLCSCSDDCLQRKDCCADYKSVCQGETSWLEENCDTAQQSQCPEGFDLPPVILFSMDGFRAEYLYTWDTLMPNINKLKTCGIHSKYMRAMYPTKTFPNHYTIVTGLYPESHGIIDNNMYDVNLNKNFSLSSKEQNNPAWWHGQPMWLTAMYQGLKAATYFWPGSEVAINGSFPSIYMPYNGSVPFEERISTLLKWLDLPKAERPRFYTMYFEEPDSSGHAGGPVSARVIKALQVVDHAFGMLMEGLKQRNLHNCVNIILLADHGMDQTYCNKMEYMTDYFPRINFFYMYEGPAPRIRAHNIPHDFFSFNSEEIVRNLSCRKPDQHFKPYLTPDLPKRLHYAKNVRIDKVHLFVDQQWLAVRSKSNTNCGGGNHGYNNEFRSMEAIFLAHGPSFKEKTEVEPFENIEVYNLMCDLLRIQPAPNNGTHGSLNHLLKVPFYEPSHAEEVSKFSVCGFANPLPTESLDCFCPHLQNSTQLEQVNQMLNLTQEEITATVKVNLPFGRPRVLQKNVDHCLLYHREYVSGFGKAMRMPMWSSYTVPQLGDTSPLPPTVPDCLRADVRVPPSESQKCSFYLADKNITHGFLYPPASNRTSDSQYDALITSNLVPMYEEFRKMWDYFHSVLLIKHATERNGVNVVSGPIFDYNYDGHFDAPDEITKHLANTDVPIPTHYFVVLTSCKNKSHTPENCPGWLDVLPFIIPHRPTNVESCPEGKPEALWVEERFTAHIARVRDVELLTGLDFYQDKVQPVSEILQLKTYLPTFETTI

Human CD39 (NTPDase1) = molecular target: T2, Human CD39 (NTPDase1) (Homo sapiens, UniProt P49961); assay: Inhibition of human CD39 (NTPDase1), 100 μM ADP as substrate; format: biochemical; settings: 100 μM ADP as a substrate
T2 sequence (P49961 1-510): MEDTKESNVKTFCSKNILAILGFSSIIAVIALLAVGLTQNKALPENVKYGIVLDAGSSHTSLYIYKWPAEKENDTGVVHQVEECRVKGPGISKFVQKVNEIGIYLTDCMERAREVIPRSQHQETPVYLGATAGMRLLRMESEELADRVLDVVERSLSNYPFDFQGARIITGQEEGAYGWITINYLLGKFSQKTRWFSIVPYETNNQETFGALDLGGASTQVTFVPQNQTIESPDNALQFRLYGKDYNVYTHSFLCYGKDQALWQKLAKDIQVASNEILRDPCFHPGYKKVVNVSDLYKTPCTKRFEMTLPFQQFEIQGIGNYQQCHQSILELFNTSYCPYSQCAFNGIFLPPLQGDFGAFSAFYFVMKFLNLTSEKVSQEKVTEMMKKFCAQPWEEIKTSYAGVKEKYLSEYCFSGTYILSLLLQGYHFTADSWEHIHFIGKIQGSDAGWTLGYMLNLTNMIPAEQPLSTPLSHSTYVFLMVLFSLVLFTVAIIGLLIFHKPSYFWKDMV

NPP1 [1] = molecular target: T3, NPP1 (Homo sapiens, UniProt P22413); settings: literature value; cited from earlier work
T3 sequence (P22413 1-925): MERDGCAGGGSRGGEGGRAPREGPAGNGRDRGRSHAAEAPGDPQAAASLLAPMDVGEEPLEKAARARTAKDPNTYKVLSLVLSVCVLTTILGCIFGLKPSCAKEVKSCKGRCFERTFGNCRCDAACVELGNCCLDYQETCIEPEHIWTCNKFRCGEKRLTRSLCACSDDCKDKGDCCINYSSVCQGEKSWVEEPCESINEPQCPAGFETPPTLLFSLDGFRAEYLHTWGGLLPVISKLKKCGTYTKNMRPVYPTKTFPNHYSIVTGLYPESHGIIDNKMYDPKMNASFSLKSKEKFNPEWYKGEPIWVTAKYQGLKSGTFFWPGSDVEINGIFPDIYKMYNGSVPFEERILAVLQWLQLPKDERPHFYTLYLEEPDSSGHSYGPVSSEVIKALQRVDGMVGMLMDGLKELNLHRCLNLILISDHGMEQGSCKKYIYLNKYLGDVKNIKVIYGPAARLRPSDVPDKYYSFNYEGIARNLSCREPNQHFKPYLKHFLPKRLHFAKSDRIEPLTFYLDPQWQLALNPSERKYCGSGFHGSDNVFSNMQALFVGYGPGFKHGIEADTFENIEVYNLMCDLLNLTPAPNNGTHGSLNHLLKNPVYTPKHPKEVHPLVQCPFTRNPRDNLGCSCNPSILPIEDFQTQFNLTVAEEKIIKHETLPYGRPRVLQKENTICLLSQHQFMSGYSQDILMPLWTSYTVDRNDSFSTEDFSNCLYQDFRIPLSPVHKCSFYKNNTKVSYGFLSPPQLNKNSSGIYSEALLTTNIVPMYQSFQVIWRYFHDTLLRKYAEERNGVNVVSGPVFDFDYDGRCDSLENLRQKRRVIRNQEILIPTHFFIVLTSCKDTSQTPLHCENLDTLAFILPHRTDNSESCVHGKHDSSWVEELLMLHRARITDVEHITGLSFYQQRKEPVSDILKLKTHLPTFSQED

Human CD73 = molecular target: T4, Human CD73 (Homo sapiens, UniProt P21589); settings: literature value; cited from earlier work
T4 sequence (P21589 27-549): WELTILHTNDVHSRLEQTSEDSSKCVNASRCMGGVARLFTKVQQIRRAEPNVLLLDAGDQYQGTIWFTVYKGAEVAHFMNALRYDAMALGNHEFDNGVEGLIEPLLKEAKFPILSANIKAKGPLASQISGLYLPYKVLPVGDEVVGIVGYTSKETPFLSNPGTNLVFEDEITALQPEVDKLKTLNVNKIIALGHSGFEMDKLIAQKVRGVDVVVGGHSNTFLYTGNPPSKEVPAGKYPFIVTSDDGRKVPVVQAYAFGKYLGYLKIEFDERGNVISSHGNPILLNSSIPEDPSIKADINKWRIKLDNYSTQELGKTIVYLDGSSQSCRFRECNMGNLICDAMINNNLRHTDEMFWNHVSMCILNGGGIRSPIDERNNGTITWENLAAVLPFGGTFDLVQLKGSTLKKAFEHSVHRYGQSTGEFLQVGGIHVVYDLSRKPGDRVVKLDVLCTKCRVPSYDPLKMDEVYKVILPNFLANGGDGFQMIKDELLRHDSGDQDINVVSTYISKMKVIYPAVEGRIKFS

[2] = test system: primary human chondrocytes; assay: Cell viability of primary human chondrocytes, XTT assay; format: cell-based; settings: cultured primary human chondrocytes, 0.1 mM
Description: FIG. 11: Analogs 20-28 are not toxic to primary human chondrocytes. Chondrocytes were incubated with analogs 20-28 at the indicated concentrations for 24 h, and then cell viability was assessed by the XTT assay;
FIG. 15: The effects of analogs 106-109 on primary human chondrocytes. (A) Analogs 106-109 inhibit NPPase activity in primary chondrocytes. NPPase activity was assayed by measuring the hydrolysis of the chromogenic substrate, pnp-TMP. […] Alkaline phosphatase activity was assayed by hydrolysis of p-nitrophenyl phosphate. (C) Analogs 106-109 are not toxic to cultured chondrocytes at a concentration of 0.1 mM. Cell viability was assessed by the XTT assay. Mean (columns) and SD (error bars) of triplicate cell culture experiments are shown.
A prerequisite for the application of inhibitors 20-28 as therapeutic agents is the lack of toxicity. For this purpose, primary human chondrocytes were cultured with analogs 20-28 at a high concentration of 1 mM for 24 h. Thereafter, cell viability was measured relative to untreated controls by the XTT assay and is represented on FIG. 11. No significant decrease in cell's viability was discernible at concentrations of up to 1 mM.

NPP1 [3] = molecular target: T3, NPP1; assay: Inhibition of human NPP1, 100 μM ATP as substrate (FIG. 9, Table 6); format: biochemical; settings: vs ATP; α value of ~1
Description: Each experiment was performed in triplicates;

NPP1 [4] = molecular target: T3, NPP1; assay: Inhibition of human NPP1, 100 μM p-Nph-5′-TMP as substrate (Tables 5, 6); settings: vs p-Nph-5′-TMP; […]

## Nc1ncnc2c1ncn2[C@@H]1O[C@H](COP(=O)(O)CP(=O)(O)O)[C@@H](O)[C@H]1O [AOPCP, reference compound]
Human NPP3
  % inhibition ± SD at 10 μM, Human NPP3: inactived
Human CD39 (NTPDase1); 10 μM, inactive = no inhibition at 10 μM
  % inhibition ± SD at 10 μM, Human CD39 (NTPDase1): 12 ± 5%
Human CD39 (NTPDase1); read-out: Ki ± SD (μM), Human CD39 (NTPDase1)
  Ki: > 10 µM
NPP1 [1]
  Ki: 1.28 to 16.5 µM
Human CD73
  Ki: 0.197 µM

## Nc1ncnc2c1ncn2COCCOP(=S)(S)OP(=O)(O)O (stereo not shown) [Analogue 106]
[2]
  cell viability (XTT), toxicity: slightly increase cell survival

## Nc1ncnc2c1ncn2COCCOP(=S)(S)OP(=O)(O)OP(=O)(O)O (stereo not shown) [Analogue 107]
NPP1 [3]
  inhibition type (Lineweaver-Burk plot): non-competitive inhibition
[2]
  cell viability (XTT), toxicity: slightly increase cell survival
NPP1 [4]
  inhibition type (Lineweaver-Burk plot): non-competitive inhibition

## Nc1ncnc2c1ncn2COCCOP(=S)(S)OP(=O)(O)C(Cl)(Cl)P(=O)(O)O (stereo not shown) [Analogue 109]
[2]
  cell viability (XTT), toxicity: slightly increase cell survival
